For 1 molecule, Ki results are on record in BindingDB's records for doi:10.1016/j.bmc.2009.03.040 (Institute For Medical Research, 2009).

In general, Ki refers to a dissociation constant, usually derived from enzyme kinetics or from competition with a known ligand.

The assay addresses T1, Lethal factor (Bacillus anthracis, UniProt P15917).
T1 sequence (P15917 whole entry): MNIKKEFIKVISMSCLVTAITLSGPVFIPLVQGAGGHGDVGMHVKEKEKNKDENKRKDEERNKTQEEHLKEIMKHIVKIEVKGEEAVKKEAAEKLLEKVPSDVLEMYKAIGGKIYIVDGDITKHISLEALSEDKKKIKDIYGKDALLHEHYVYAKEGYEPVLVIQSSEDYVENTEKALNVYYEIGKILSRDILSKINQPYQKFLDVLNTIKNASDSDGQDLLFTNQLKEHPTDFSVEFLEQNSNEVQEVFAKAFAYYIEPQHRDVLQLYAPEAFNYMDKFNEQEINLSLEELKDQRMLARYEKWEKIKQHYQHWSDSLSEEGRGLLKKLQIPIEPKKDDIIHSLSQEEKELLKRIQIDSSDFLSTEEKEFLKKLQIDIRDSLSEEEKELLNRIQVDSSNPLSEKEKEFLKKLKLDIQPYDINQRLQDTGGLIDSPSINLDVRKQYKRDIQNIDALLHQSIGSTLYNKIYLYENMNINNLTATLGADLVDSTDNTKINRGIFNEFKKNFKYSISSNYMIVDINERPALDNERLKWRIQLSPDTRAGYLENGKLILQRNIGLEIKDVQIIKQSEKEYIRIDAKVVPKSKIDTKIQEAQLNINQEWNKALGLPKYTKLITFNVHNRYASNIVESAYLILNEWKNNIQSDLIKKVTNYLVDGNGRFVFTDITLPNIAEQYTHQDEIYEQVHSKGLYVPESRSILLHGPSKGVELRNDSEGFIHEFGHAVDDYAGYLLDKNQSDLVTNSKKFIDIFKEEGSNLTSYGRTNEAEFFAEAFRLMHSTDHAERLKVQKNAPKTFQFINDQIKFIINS
Nature of the assay: Inhibition of Bacillus anthracis lethal factor assessed as cleavage of MAPKK by fluorescence peptide cleavage assay.

With `COc1ccc(-c2ccc(S(=O)(=O)Nc3sccc3-c3nc4ccccc4s3)cc2)cc1` [N-(3-(benzo[d]thiazol-2-yl)thiophen-2-yl)-4'-methoxybiphenyl-4-sulfonamide], the Ki was found to be 1000 nM.
